Experiments:
Format in all cases: functional
SW-620 = experiment: Cytotoxicity against human SW620 cells assessed as cell growth at 1 uM incubated for 48 hrs by sulforhodamine B assay relative to control; details: SW-620, 48 h, read-out: Activity
MDA-MB-468 = experiment: Cytotoxicity against human MDA-MB-468 cells incubated for 48 hrs by sulforhodamine B assay; details: MDA-MB-468, 48 h
HCT-116 [1] = experiment: Cytotoxicity against human HCT116 cells assessed as cell growth at 1 uM incubated for 48 hrs by sulforhodamine B assay relative to control; details: HCT-116, 48 h, read-out: Activity
SK-MEL-5 = experiment: Cytotoxicity against human SK-MEL-5 cells assessed as cell growth at 0.1 uM incubated for 48 hrs by sulforhodamine B assay relative to control; details: SK-MEL-5, 48 h, read-out: Activity
SNB-19 = experiment: Cytotoxicity against human SNB19 cells assessed as cell growth at 1 uM incubated for 48 hrs by sulforhodamine B assay relative to control; details: SNB-19, 48 h, read-out: Activity
ACHN [2] = experiment: Cytotoxicity against human ACHN cells assessed as cell growth at 0.1 uM incubated for 48 hrs by sulforhodamine B assay relative to control; details: read-out: Activity
OVCAR-5 = experiment: Cytotoxicity against human OVCAR5 cells assessed as cell growth at 0.01 uM incubated for 48 hrs by sulforhodamine B assay relative to control; details: OVCAR-5, 48 h, read-out: Activity
M14 = experiment: Cytotoxicity against human M14 cells assessed as cell growth at 1 uM incubated for 48 hrs by sulforhodamine B assay relative to control; details: M14, 48 h, read-out: Activity
NCI-H460 = experiment: Cytotoxicity against human NCI-H460 cells incubated for 48 hrs by sulforhodamine B assay; details: NCI-H460, 48 h
HCT-116 [3] = experiment: Cytotoxicity against human HCT116 cells assessed as cell growth at 0.01 uM incubated for 48 hrs by sulforhodamine B assay relative to control; details: HCT-116, 48 h, read-out: Activity
HOP-92 = experiment: Cytotoxicity against human HOP92 cells assessed as cell growth at 0.1 uM incubated for 48 hrs by sulforhodamine B assay relative to control; details: HOP-92, 48 h, read-out: Activity
HT-29 = experiment: Cytotoxicity against human HT-29 cells assessed as cell growth at 0.1 uM incubated for 48 hrs by sulforhodamine B assay relative to control; details: HT-29, 48 h, read-out: Activity
HCT-116 [4] = experiment: Cytotoxicity against human HCT116 cells assessed as cell growth at 100 uM incubated for 48 hrs by sulforhodamine B assay relative to control; details: HCT-116, 48 h, read-out: Activity
ACHN [5] = experiment: Cytotoxicity against human ACHN cells assessed as cell growth at 10 uM incubated for 48 hrs by sulforhodamine B assay relative to control; details: read-out: Activity
RXF 393 [6] = experiment: Cytotoxicity against human RXF393 cells assessed as cell growth at 10 uM incubated for 48 hrs by sulforhodamine B assay relative to control; details: RXF 393, 48 h, read-out: Activity
A498 [7] = experiment: Cytotoxicity against human A498 cells assessed as cell growth at 1 uM incubated for 48 hrs by sulforhodamine B assay relative to control; details: A498, 48 h, read-out: Activity
OVCAR-3 = experiment: Cytotoxicity against human OVCAR3 cells assessed as cell growth at 10 uM incubated for 48 hrs by sulforhodamine B assay relative to control; details: OVCAR-3, 48 h, read-out: Activity
RXF 393 [8] = experiment: Cytotoxicity against human RXF393 cells assessed as cell growth at 1 uM incubated for 48 hrs by sulforhodamine B assay relative to control; details: RXF 393, 48 h, read-out: Activity
SN12C = experiment: Cytotoxicity against human SN12C cells assessed as cell growth at 100 uM incubated for 48 hrs by sulforhodamine B assay relative to control; details: read-out: Activity
SR [9] = experiment: Cytotoxicity against human SR cells incubated for 48 hrs by sulforhodamine B assay
BT-549 = experiment: Cytotoxicity against human BT549 cells assessed as cell growth at 0.01 uM incubated for 48 hrs by sulforhodamine B assay relative to control; details: BT-549, 48 h, read-out: Activity
786-0 = experiment: Cytotoxicity against human 786-0 cells assessed as cell growth at 1 uM incubated for 48 hrs by sulforhodamine B assay relative to control; details: 786-0, 48 h, read-out: Activity
SR [10] = experiment: Cytotoxicity against human SR cells assessed as cell growth at 100 uM incubated for 48 hrs by sulforhodamine B assay relative to control; details: read-out: Activity
A498 [11] = experiment: Cytotoxicity against human A498 cells assessed as cell growth at 0.1 uM incubated for 48 hrs by sulforhodamine B assay relative to control; details: A498, 48 h, read-out: Activity
KM12 = experiment: Cytotoxicity against human KM12 cells assessed as cell growth at 0.1 uM incubated for 48 hrs by sulforhodamine B assay relative to control; details: KM12, 48 h, read-out: Activity
CCRF-CEM = experiment: Cytotoxicity against human CCRF-CEM cells assessed as cell growth at 0.01 uM incubated for 48 hrs by sulforhodamine B assay relative to control; details: read-out: Activity
HL-60(TB) = experiment: Cytotoxicity against human HL-60(TB) cells assessed as cell growth at 0.01 uM incubated for 48 hrs by sulforhodamine B assay relative to control; details: HL-60, 48 h, read-out: Activity
UO-31 = experiment: Cytotoxicity against human UO31 cells incubated for 48 hrs by sulforhodamine B assay; details: UO-31, 48 h
EKVX = experiment: Cytotoxicity against human EKVX cells assessed as cell growth at 1 uM incubated for 48 hrs by sulforhodamine B assay relative to control; details: read-out: Activity
SF-539 = experiment: Cytotoxicity against human SF539 cells assessed as cell growth at 1 uM incubated for 48 hrs by sulforhodamine B assay relative to control; details: SF-539, 48 h, read-out: Activity
HCC 2998 = experiment: Cytotoxicity against human HCC2998 cells assessed as cell growth at 100 uM incubated for 48 hrs by sulforhodamine B assay relative to control; details: HCC 2998, 48 h, read-out: Activity
K562 = experiment: Cytotoxicity against human K562 cells assessed as cell growth at 0.01 uM incubated for 48 hrs by sulforhodamine B assay relative to control; details: K562, 48 h, read-out: Activity
[12] = read-out: LC50 (the source's name)
[13] = read-out: pLC50 (the source's name) (converted)

## COc1ccc(-c2nocc2-c2cc(OC)c(OC)c(OC)c2)cc1
SW-620
  growth at 1 µM: 21%
MDA-MB-468; read-out: GI50
  GI50: 123 nM
MDA-MB-468; read-out: LC50
  LC50: > 100 µM
MDA-MB-468; read-out: TGI
  TGI: 13.8 µM
MDA-MB-468; read-out: pGI50 (converted)
  GI50: 123 nM
MDA-MB-468; read-out: pLC50 (converted)
  LC50: > 100 µM
MDA-MB-468; read-out: pTGI (converted)
  TGI: 13.8 µM
HCT-116 [1]
  growth at 1 µM: 14%
SK-MEL-5
  growth at 0.1 µM: 41%
SNB-19
  growth at 1 µM: 36%
ACHN [2]
  growth at 0.1 µM: 62%
OVCAR-5
  growth at 0.01 µM: 89%
M14
  growth at 1 µM: 12%
NCI-H460; read-out: GI50
  GI50: 53.6 nM
NCI-H460; [12]
  CC50: > 100 µM
NCI-H460; read-out: TGI
  TGI: 12.7 µM
NCI-H460; read-out: pGI50 (converted)
  GI50: 53.7 nM
NCI-H460; [13]
  CC50: > 100 µM
NCI-H460; read-out: pTGI (converted)
  TGI: 12.6 µM
HCT-116 [3]
  growth at 0.01 µM: 92%
HOP-92
  growth at 0.1 µM: 72%
HT-29
  growth at 0.1 µM: 13%
HCT-116 [4]
  growth at 100 µM: -29%
ACHN [5]
  growth at 10 µM: 29%
RXF 393 [6]
  growth at 10 µM: 1%
A498 [7]
  growth at 1 µM: -3%
OVCAR-3
  growth at 10 µM: -9%
RXF 393 [8]
  growth at 1 µM: -7%
SN12C
  growth at 100 µM: -1%
SR [9]; read-out: GI50
  GI50: 71.7 nM
SR [9]; [12]
  CC50: > 100 µM
SR [9]; read-out: TGI
  TGI: 58.3 µM
SR [9]; read-out: pGI50 (converted)
  GI50: 72.4 nM
SR [9]; [13]
  CC50: > 100 µM
SR [9]; read-out: pTGI (converted)
  TGI: 58.9 µM
BT-549
  growth at 0.01 µM: 86%
786-0
  growth at 1 µM: 37%
SR [10]
  growth at 100 µM: -7%
A498 [11]
  growth at 0.1 µM: 29%
KM12
  growth at 0.1 µM: 26%
CCRF-CEM
  growth at 0.01 µM: 111%
HL-60(TB)
  growth at 0.01 µM: 105%
UO-31; read-out: GI50
  GI50: 545 nM
UO-31; [12]
  CC50: > 100 µM
UO-31; read-out: TGI
  TGI: 28.7 µM
UO-31; read-out: pGI50 (converted)
  GI50: 550 nM
UO-31; [13]
  CC50: > 100 µM
UO-31; read-out: pTGI (converted)
  TGI: 28.8 µM
EKVX
  growth at 1 µM: 37%
SF-539
  growth at 1 µM: 1%
HCC 2998
  growth at 100 µM: -47%
K562
  growth at 0.01 µM: 103%

— ChEMBL document CHEMBL4145521, “Regioselective synthesis of 3,4-diaryl-5-unsubstituted isoxazoles, analogues of natural cytostatic combretastatin A4” (Eur J Med Chem, 2018)
